Source: US8637505B2, “Cyclic inhibitors of 11beta-hydroxysteroid dehydrogenase 1” (Boehringer Ingelheim International GmbH, priority 2009, dated 2014)

What follows are molecules tested against T1, 11β-HSD1 (Homo sapiens, UniProt P28845) (assay: In vitro inhibition of 11β-HSD1, HTRF detection of cortisol generated by human liver microsomes). Conditions: at 100 nM; 100% indicates no inhibition, zero or below zero indicates complete inhibition; Biological Test Example B.
T1 construct: detecting cortisol generated from cortisterone by human liver microsomes; from tissue; host or cells: human liver microsomes
T1 sequence (P28845 whole entry): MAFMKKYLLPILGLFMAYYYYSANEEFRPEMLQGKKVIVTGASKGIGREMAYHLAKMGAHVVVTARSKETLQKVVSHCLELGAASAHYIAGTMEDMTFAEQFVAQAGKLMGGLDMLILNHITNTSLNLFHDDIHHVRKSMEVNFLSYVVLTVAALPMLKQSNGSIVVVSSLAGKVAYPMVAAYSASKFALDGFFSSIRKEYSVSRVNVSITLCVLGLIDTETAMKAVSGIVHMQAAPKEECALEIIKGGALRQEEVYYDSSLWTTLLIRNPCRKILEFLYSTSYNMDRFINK
Type: biochemical
Protocol: The ratio of the two emission signals is then calculated (Em665*10000/Em615).

| Molecule | Average % control inhibition at 100 nM [%] |
| --- | --- |
| (S)-6-(2-Hydroxy-2-methyl-propyl)-6-phenyl-3-{(S)-1-[4′-(alkoxy)-biphenyl-4-yl]-ethyl}-[1,3]oxazinan-2-one [Example B1] | 0 |

Same assay, conditions: at 100 nM; 100% indicates no inhibition, zero or below zero indicates complete inhibition; Biological Test Example B; read-out: Average % control inhibition at 100 nM

| Molecule | remaining activity at 0.1 µM [%] |
| --- | --- |
| COC(=O)COc1ccc(-c2ccc([C@H](C)N3CC[C@](CC(C)(C)O)(c4ccccc4)OC3=O)cc2)cc1 [Example B2, (4′-{(S)-1-[(S)-6-(2-Hydroxy-2-methyl-propyl)-2-oxo-6-phenyl-[1,3]oxazinan-3-yl]-ethyl}-biphenyl-4-yloxy)-acetic acid methyl ester] | 18 |

Same assay, conditions: at 100 nM; 100% indicates no inhibition, zero or below zero indicates complete inhibition; Biological Test Example C; read-out: Average % control inhibition at 100 nM

| Molecule | remaining activity at 0.1 µM [%] |
| --- | --- |
| C[C@@H](c1ccc(-c2nnc(C(F)(F)F)s2)cc1)N1CC[C@](CC(C)(C)O)(c2ccccc2)OC1=O [Example C2, (S)-6-(2-Hydroxy-2-methyl-propyl)-6-phenyl-3-{(S)-1-[4-(5-trifluoromethyl-[1,3,4]thiadiazol-2-yl)-phenyl]-ethyl}-[1,3]oxazinan-2-one] | 60 |
| C[C@@H](c1ccc(C2CCOC2)cc1)N1CC[C@](CC(C)(C)O)(c2ccccc2)OC1=O (stereo partly drawn) [Example C4, (S)-6-(2-Hydroxy-2-methyl-propyl)-6-phenyl-3-{(S)-1-[4-(tetrahydro-furan-3-yl)-phenyl]-ethyl}-[1,3]oxazinan-2-one] | 30 |

Same assay, conditions: at 100 nM; 100% indicates no inhibition, zero or below zero indicates complete inhibition; Biological Test Example D; read-out: Average % control inhibition at 100 nM

| Molecule | remaining activity at 0.1 µM [%] |
| --- | --- |
| C[C@@H](c1ccc(-c2ccc(OCCO)cc2)cc1)N1CC[C@](CC(C)(C)O)(c2ccccc2)OC1=O [Example D6, 3-{(S)-1-[4′-(2-Hydroxy-ethoxy)-biphenyl-4-yl]-ethyl}-(S)-6-(2-hydroxy-2-methyl-propyl)-6-phenyl-[1,3]oxazinan-2-one] | -12 |
| C[C@@H](c1ccc(-c2ccc(OCC(C)(C)O)cc2)cc1)N1CC[C@](CC(C)(C)O)(c2ccccc2)OC1=O [Example D7, 3-{(S)-1-[4′-(2-Hydroxy-2-methyl-propoxy)-biphenyl-4-yl]-ethyl}-(S)-6-(2-hydroxy-2-methyl-propyl)-6-phenyl-[1,3]oxazinan-2-one] | 3 |

Same assay, conditions: at 100 nM; 100% indicates no inhibition, zero or below zero indicates complete inhibition; Biological Test Example E

| Molecule | Average % control inhibition at 100 nM [%] |
| --- | --- |
| (S)-6-(2-Hydroxy-2-methyl-propyl)-6-phenyl-3-((S)-1-{4-[2-(alkoxy)-pyridin-4-yl]-phenyl}-ethyl)-[1,3]oxazinan-2-one [Example E1] | 25 |

Same assay, conditions: read-out: Average % control inhibition at 100 nM

| Molecule | remaining activity at 0.1 µM [%] |
| --- | --- |
| Cc1nnc(-c2ccc([C@H](C)N3CC[C@](CC(C)C)(c4ccccc4)OC3=O)cc2)o1 (stereo in doubt) [Example 1, (S)-6-Isobutyl-3-{1-[4-(5-methyl-[1,3,4]oxadiazol-2-yl)-phenyl]-ethyl}-6-phenyl-[1,3]oxazinan-2-one] | 2 |
| Cc1nnc(-c2ccc([C@H](C)N3CC[C@](CC(C)(C)O)(c4ccccc4)OC3=O)cc2)n1C [Example 2, 3-{(S)-1-[4-(4,5-Dimethyl-4H-[1,2,4]triazol-3-yl)-phenyl]-ethyl}-(S)-6-(2-hydroxy-2-methyl-propyl)-6-phenyl-[1,3]oxazinan-2-one] | 95 |
| Cc1nnc(-c2ccc([C@H](C)N3CC[C@](CC(C)(C)O)(c4ccccc4)OC3=O)cc2)o1 [Example 3, (S)-6-(2-hydroxy-2-methyl-propyl)-3-{(S)-1-[4-(5-methyl-[1,3,4]oxadiazol-2-yl)-phenyl]-ethyl}-6-phenyl-[1,3]oxazinan-2-one] | 38 |
| C[C@@H](c1ccc(-c2nnco2)cc1)N1CC[C@](CC(C)(C)O)(c2ccccc2)OC1=O [Example 5, (S)-6-(2-Hydroxy-2-methyl-propyl)-3-[(S)-1-(4-[1,3,4]oxadiazol-2-yl-phenyl)-ethyl]-6-phenyl-[1,3]oxazinan-2-one] | 48 |
| Cc1nc(-c2ccc([C@H](C)N3CC[C@](CC(C)(C)O)(c4ccccc4)OC3=O)cc2)no1 [Example 6, (S)-6-(2-Hydroxy-2-methyl-propyl)-3-{(S)-1-[4-(5-methyl-[1,2,4]oxadiazol-3-yl)-phenyl]-ethyl}-6-phenyl-[1,3]oxazinan-2-one] | 40 |
| C[C@@H](c1ccc(-c2ncon2)cc1)N1CC[C@](CC(C)(C)O)(c2ccccc2)OC1=O [Example 7, (S)-6-(2-Hydroxy-2-methyl-propyl)-3-[(S)-1-(4-[1,2,4]oxadiazol-3-yl-phenyl)-ethyl]-6-phenyl-[1,3]oxazinan-2-one] | 50 |
| C[C@@H](c1ccc(C(N)=O)cc1)N1CC[C@](CC(C)(C)O)(c2ccccc2)OC1=O [Example 8, 4-{(S)-1-[(S)-6-(2-Hydroxy-2-methyl-propyl)-2-oxo-6-phenyl-[1,3]oxazinan-3-yl]-ethyl}-benzamide] | 92 |
| Cc1noc(C)c1-c1ccc([C@H](C)N2CC[C@](CC(C)(C)O)(c3ccccc3)OC2=O)cc1 [Example 10, 3-{(S)-1-[4-(3,5-Dimethyl-isoxazol-4-yl)-phenyl]-ethyl}-(S)-6-(2-hydroxy-2-methyl-propyl)-6-phenyl-[1,3]oxazinan-2-one] | 20 |
| C[C@@H](c1ccc(-c2ccsc2)cc1)N1CC[C@](CC(C)(C)O)(c2ccccc2)OC1=O [Example 11, (S)-6-(2-Hydroxy-2-methyl-propyl)-6-phenyl-3-[(S)-1-(4-thiophen-3-yl-phenyl)-ethyl]-[1,3]oxazinan-2-one] | 13 |
| C[C@@H](c1ccc(-c2nc3c(=O)n(C)c(=O)n(C)c3n2C)cc1)N1CC[C@](CC(C)(C)O)(c2ccccc2)OC1=O [Example 12, 8-(4-{(S)-1-[(S)-6-(2-Hydroxy-2-methyl-propyl)-2-oxo-6-phenyl-[1,3]oxazinan-3-yl]-ethyl}-phenyl)-1,3,9-trimethyl-3,9-dihydro-purine-2,6-dione] | 98 |
| C[C@@H](c1ccc(-c2ccco2)cc1)N1CC[C@](CC(C)(C)O)(c2ccccc2)OC1=O [Example 13, 3-[(S)-1-(4-Furan-2-yl-phenyl)-ethyl]-(S)-6-(2-hydroxy-2-methyl-propyl)-6-phenyl-[1,3]oxazinan-2-one] | -2 |
| C[C@@H](c1ccc(-c2ccoc2)cc1)N1CC[C@](CC(C)(C)O)(c2ccccc2)OC1=O [Example 20, 3-[(S)-1-(4-Furan-3-yl-phenyl)-ethyl]-(S)-6-(2-hydroxy-2-methyl-propyl)-6-phenyl-[1,3]oxazinan-2-one] | 10 |
